Reference: patent publication US10851065B2 (Eisai R&D Management Co., Ltd., priority 2015, dated 2020)

Tests used:
[1] = tested on: MCF7-Y537S cells (MCF7 ER-alpha Y537S mutant); experiment: In vitro proliferation (viability) assay, CellTiter-Glo, MCF7-Y537S cells; type: cell-based; settings: Homo sapiens; MCF7-Y537S cells, 6 days, CTG vs day 0; mean ± SD-type spread (n); read-out: GI50 MUT (Y537S)
In short: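 Stable lentiviral MCF7 lines expressing WT or Y537S ESR1 seeded at 1500 cells/well; next day dosed with 10-point 1:4 dilutions in triplicate, with media/compound refreshed on day 3. CellTiter-Glo luminescence on day 6 compared with a day 0 reading to give GI50.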

[2] = tested on: MCF7-WT cells (MCF7 ER-alpha wildtype); experiment: In vitro proliferation (viability) assay, CellTiter-Glo, MCF7-WT cells; type: cell-based; settings: Homo sapiens; MCF7-WT cells, 6 days, CTG vs day 0; mean ± SD-type spread (n); read-out: GI50 WT

GI50 [1] [nM] | GI50 [2] [nM] | Structure (SMILES)
29.4 ± 4.7 | 1.73 ± 1 | CC/C(=C(/c1ccc(OCCNC/C=C(\C)C(=O)N(C)C)cc1)c1ccc2[nH]nc(F)c2c1)c1ccc(F)cc1Cl [Compound 86]
13 | 0.3 | CC/C(=C(/c1ccc(OCCNC/C=C/C(=O)N(C)C)cc1)c1ccc2[nH]nc(F)c2c1)c1ccncc1F [Compound 81, (E)-4-((2-(4-((E)-1-(3-fluoro-1H-indazol-5-yl)-2-(3-fluoropyridin-4-yl)but-1-en-1-yl)phenoxy)ethyl)amino)-N,N-dimethylbut-2-enamide]
13.1 | 0.83 | CC/C(=C(/c1ccc(OCCNC/C=C/C(=O)N(C)C)cc1)c1ccc2[nH]ncc2c1)c1ccccc1OC [Compound 31]
64.8 ± 37.2 | 5.56 ± 2.84 | CC/C(=C(/c1ccc(OCCNC/C=C/C(=O)N(C)C)cc1)c1ccc2[nH]nc(F)c2c1)c1ccccc1 [Compound 2, (E)-4-((2-(4-((E)-1-(3-fluoro-1H-indazol-5-yl)-2-phenylbut-1-en-1-yl)phenoxy)ethyl)amino)-N,N-dimethylbut-2-enamide]
93.6 | 10.5 | CC/C(=C(/c1ccc(OCCNC/C=C/C(=O)N(C)C)cc1)c1ccc2[nH]ncc2c1)c1ccccc1C(C)C [Compound 34, (E)-4-((2-(4-((E)-1-(1H-indazol-5-yl)-2-(2-isopropylphenyl)but-1-en-1-yl)phenoxy)ethyl)amino)-N,N-dimethylbut-2-enamide]
61.3 ± 9.98 | 2.74 ± 1.06 | CN(C)C(=O)/C=C/CNCCOc1ccc(/C(=C(/CCCl)c2ccccc2)c2ccc3[nH]ncc3c2)cc1 [Compound 30, (E)-4-((2-(4-((E)-4-chloro-1-(1H-indazol-5-yl)-2-phenylbut-1-en-1-yl)phenoxy)ethyl)amino)-N,N-dimethylbut-2-enamide]
21.9 | 1.66 | CC/C(=C(/c1ccc(OCCNC/C=C/C(=O)N(C)CC)cc1)c1ccc2[nH]ncc2c1)c1ccccc1 [Compound 16, (E)-4-((2-(4-((E)-1-(1H-indazol-5-yl)-2-phenylbut-1-en-1-yl)phenoxy)ethyl)amino)-N-ethyl-N-methylbut-2-enamide]
72.2 | 3.2 | CC/C(=C(/c1ccc(OCCNC/C=C/C(=O)N(C)CCO)cc1)c1ccc2[nH]nc(F)c2c1)c1ccncc1 [Compound 75, (E)-4-((2-(4-((E)-1-(3-fluoro-1H-indazol-5-yl)-2-(pyridin-4-yl)but-1-en-1-yl)phenoxy)ethyl)amino)-N-(2-hydroxyethyl)-N-methylbut-2-enamide]
288 | 5.4 | CC/C(=C(/c1ccc(OCCNC/C=C/C(=O)N(C)C)c(F)c1)c1ccc2[nH]nc(F)c2c1)c1ccccc1 [Compound 49, (E)-4-((2-(2-fluoro-4-((Z)-1-(3-fluoro-1H-indazol-5-yl)-2-phenylbut-1-en-1-yl)phenoxy)ethyl)amino)-N,N-dimethylbut-2-enamide]
18.6 | 1.58 | CC/C(=C(/c1ccc(OCCNC/C=C/C(=O)N(C)C)cc1)c1ccc2[nH]nc(F)c2c1)c1ccc(F)cc1Cl [Compound 19, (E)-4-((2-(4-((E)-2-(2-chloro-4-fluorophenyl)-1-(3-fluoro-1H-indazol-5-yl)but-1-en-1-yl)phenoxy)ethyl)amino)-N,N-dimethylbut-2-enamide]
12.4 | 0.95 | CN(C)C(=O)/C=C/CNCCOc1ccc(/C(=C(\c2ccc(F)cc2Cl)C2CCC2)c2ccc3[nH]nc(F)c3c2)cc1 [Compound 46, (E)-4-((2-(4-((E)-2-(2-chloro-4-fluorophenyl)-2-cyclobutyl-1-(3-fluoro-1H-indazol-5-yl)vinyl)phenoxy)ethyl)amino)-N,N-dimethylbut-2-enamide]
827 | 32.1 | CC/C(=C(/c1ccc(OCCNC/C=C/C(=O)N(C)C)cc1)c1cc2c(F)n[nH]c2cc1F)c1ccccc1 [Compound 66, (E)-4-((2-(4-((E)-1-(3,6-difluoro-1H-indazol-5-yl)-2-phenylbut-1-en-1-yl)phenoxy)ethyl)amino)-N,N-dimethylbut-2-enamide]
32.5 ± 16.7 | 2.18 ± 0.87 | CC/C(=C(/c1ccc(OCCNC/C=C/C(=O)N(C)CCO)cc1)c1ccc2[nH]ncc2c1)c1ccccc1C [Compound 26, (E)-4-((2-(4-((E)-1-(1H-indazol-5-yl)-2-(o-tolyl)but-1-en-1-yl)phenoxy)ethyl)amino)-N-(2-hydroxyethyl)-N-methylbut-2-enamide]
19.6 ± 4.26 | 1.15 ± 0.3 | CC/C(=C(/c1ccc(OCCNC/C=C/C(=O)N(C)C)nc1)c1ccc2[nH]ncc2c1)c1ccccc1 [Compound 25, (E)-4-((2-((5-((Z)-1-(1H-indazol-5-yl)-2-phenylbut-1-en-1-yl)pyridin-2-yl)oxy)ethyl)amino)-N,N-dimethylbut-2-enamide]
32.7 | 2 | CN(C)C(=O)/C=C/CNCCOc1ccc(/C(=C(\c2ccccc2)C2CCC2)c2ccc3[nH]nc(F)c3c2)cn1 [Compound 72, (E)-4-((2-((5-((Z)-2-cyclobutyl-1-(3-fluoro-1H-indazol-5-yl)-2-phenylvinyl)pyridin-2-yl)oxy)ethyl)amino)-N,N-dimethylbut-2-enamide]
19.9 ± 3.58 | 1.05 ± 0.3 | CN(C)C(=O)/C=C/CNCCOc1ccc(/C(=C(\c2ccccc2)C2CCC2)c2ccc3[nH]ncc3c2F)cc1 [Compound 24, (E)-4-((2-(4-((E)-2-cyclobutyl-1-(4-fluoro-1H-indazol-5-yl)-2-phenylvinyl)phenoxy)ethyl)amino)-N,N-dimethylbut-2-enamide]
21.9 | 0.25 | CN(C)C(=O)/C=C/CNCCOc1ccc(/C(=C(/CC(F)(F)F)c2ccc(F)cc2Cl)c2ccc3[nH]nc(F)c3c2)cc1 [Compound 87, (E)-4-((2-(4-((E)-2-(2-chloro-4-fluorophenyl)-4,4,4-trifluoro-1-(3-fluoro-1H-indazol-5-yl)but-1-en-1-yl)phenoxy)ethyl)amino)-N,N-dimethylbut-2-enamide]
24.2 ± 6.57 | 1.52 ± 1.05 | O=C(/C=C/CNCCOc1ccc(/C(=C(\c2ccccc2)C2CCC2)c2ccc3[nH]ncc3c2)cc1)N1CCOCC1 [Compound 23, (E)-4-((2-(4-((E)-2-cyclobutyl-1-(1H-indazol-5-yl)-2-phenylvinyl)phenoxy)ethyl)amino)-1-morpholinobut-2-en-1-one]
74.1 ± 55.2 | 1.92 | CC/C(=C(/c1ccc(OCCNC/C=C/C(=O)N(C)C)cc1)c1ccc2[nH]ncc2c1)c1cc(F)cc(Cl)c1 [Compound 7, (E)-4-((2-(4-((E)-2-(3-chloro-5-fluorophenyl)-1-(1H-indazol-5-yl)but-1-en-1-yl)phenoxy)ethyl)amino)-N,N-dimethylbut-2-enamide]
118 | 5.57 | C#CCCN(C)C(=O)/C=C/CNCCOc1ccc(/C(=C(/CC)c2ccccc2)c2ccc3[nH]ncc3c2)cc1 [Compound 9, (E)-4-((2-(4-((E)-1-(1H-indazol-5-yl)-2-phenylbut-1-en-1-yl)phenoxy)ethyl)amino)-N-(but-3-yn-1-yl)-N-methylbut-2-enamide]
35 | 2.4 | CCC/C(=C(/c1ccc(OCCNC/C=C/C(=O)N(C)C)cc1)c1ccc2[nH]nc(F)c2c1)c1ccccc1 [Compound 77, (E)-4-((2-(4-((E)-1-(3-fluoro-1H-indazol-5-yl)-2-phenylpent-1-en-1-yl)phenoxy)ethyl)amino)-N,N-dimethylbut-2-enamide]
